Source: US20040034052A1, “Tricyclic derivatives of indole with antiangiogenic activity” (priority 2003, published 2004)
Like-named read-outs stand apart in the source and are kept apart here.

Experiments:
MCF-7/Dx line = experiment: Potentiation of doxorubicin cytotoxicity (MDR ratio), MCF-7/Dx; assay type: cell-based, human; settings: compound at 11 μM
Method: (§1) The cytotoxicity of the molecules on tumour lines resistant to chemosensitising activity was assessed on various tumour cell lines overexpressing P-glycoprotein and resistant to doxorubicin (100-fold) and cross-resistant to daunorubicin, actinomycin D, mitoxantrone, vincristine, vinblastine, taxol, colchicine, and etoposide. The cytotoxicity of the products was assessed using the same test adopted for the sensitive tumour cells.
(§2) Later, the products were assayed at a concentration lower than or equal to the one that inhibits 10% of cell survival. At this concentration, the molecules were tested in parallel in the absence and presence of doxorubicin. MDR ratios were calculated for the IC50 values in order to establish the degree of potentiation of the cytotoxic activity of doxorubicin induced by the product (MDR ratio) (De Lean et al. (1978) A. J. Physiol. 235, E97-102); (Skehan et al. (1990) J. Natl. Cancer Inst. 82, 1107-1112).

MCF-7 cells = experiment: Cell cycle and apoptosis analysis (propidium iodide, FACS) on MCF-7 cells; assay type: cell-based, human
Method: The cell cycle and apoptosis analysis on a tumour line was done by incubating the products for 24 hours at a concentration equal to approximately the IC50 Values with MCF-7 cells. The molecules were removed and the cell cycle and apoptosis were assessed at different times (0, 24, 48 hours). The cells were stained with propidium iodide and analysed with a cytofluorimeter (FACS) ([…] fluorescence activated cell sorter) by means of an argon ion laser set at 488 nm for the excitation. To assess the percentage of cells in the various stages of the cycle, linear DNA histograms were analysed with a cell fit program distributed by the equipment manufacturer. For the analysis of apoptosis, a region was inserted below the G0/G1 peak of the control population and the data were analysed with software supplied by the company (Lysis II-C32).

[1] = system: LoVo (human colon carcinoma); experiment: Sulforodamine B antiproliferative test, sensitive LoVo cells; assay type: cell-based; settings: 24 hours incubation, survival after another 48 hours, read-out: IC50 +/− SD, antiproliferative activity vs sensitive cell, LoVo
Method: (§3) For the cytotoxic activity, proliferation screening tests were used, with different tumour lines, such as MCF-7 (human mammary carcinoma), LoVo (human colon carcinoma), MES-SA (human uterine sarcoma), or K-562 (human chronic myeloid leukaemia).
(§4) The test used was the sulforodamine B test used for screening anticancer products at the National Cancer Institute (Skehan, 1990). The molecules at scalar concentrations over a range from 500 μM to 0.97 μM, were incubated in parallel with different human cell lines for 24 hours. After removing the products, cell survival was investigated after another 48 hours with the NCI test. The antiproliferative capacity of the compounds was quantified in terms of IC50±SD (concentration of the molecule that inhibits 50% of cell survival) processed using a curve fitting program (De Lean et al., 1978).

[2] = system: LoVo resistant cell (LoVo/Dx, overexpressing P-glycoprotein, resistant to doxorubicin); experiment: Antiproliferative activity vs resistant cells, LoVo; assay type: cell-based; settings: Homo sapiens, read-out: IC50 +/− SD, antiproliferative activity vs resistent cell, LoVo
Method: as §4, §1

LoVo/Dx cell line = experiment: Potentiation of doxorubicin cytotoxicity (MDR ratio), LoVo/Dx; assay type: cell-based, human; settings: compound at 11 μM
Method: as §1, §2

[3] = system: MCF-7 resistant cell (MCF-7/Dx, overexpressing P-glycoprotein, resistant to doxorubicin); experiment: Antiproliferative activity vs resistant cells, MCF-7; assay type: cell-based; settings: Homo sapiens, MCF7; MCF-7 resistant (doxorubicin-resistant); read-out: IC50 +/− SD, antiproliferative activity vs resistent cell, MCF-7
Method: as §4, §1

[4] = system: MCF-7 (human mammary carcinoma); experiment: Sulforodamine B antiproliferative test, sensitive MCF-7 cells; assay type: cell-based; settings: MCF7, MCF-7 sensitive, 24 hours incubation, survival after another 48 hours, read-out: IC50 +/− SD, antiproliferative activity vs sensitive cell, MCF-7
Method: as §3, §4

[5] = Cytotoxicity on endothelial cells (BMEC); assay type: cell-based, bovine; settings: bovine, BMEC (bovine medullary endothelial cell) cultures
[6] = system: BMEC (bovine medullary endothelial cell); experiment: Cytotoxicity on endothelial cells (BMEC); assay type: cell-based; settings: BMEC
[7] = system: BMEC (bovine medullary endothelial cell); experiment: Chemotactic assay with the Boyden chamber on BMEC; assay type: cell-based; settings: for % inhibition of migration at IC0/D.S.: BMEC, at IC0, chemotactic stimulus 1% bovine serum in DMEM
Method: For the antiangiogenic activity the chemotactic assay with the Boyden chamber was performed (Werner F., Goodwin R. H. and Leonard E. J., Journal of Immunological Methods 1980; 33, 239-247), using both bovine aortal endothelial cell (BAEC) cultures and bovine medullary endothelial cell (BMEC) cultures. The assays were performed at IC0 (maximum non-cytotoxic concentration) and the results expressed as % inhibition of migration across a porous filter in response to a chemotactic stimulus (1% bovine serum in DMEM culture medium). This finding was obtained by direct cell count under the optical microscope, and the percentage migration inhibition was calculated according to the formula (T−C/C)×100, where T=mean number of cells migrating in the sample and C=mean number of cells migrating in the control. The control consisted of cells which migrated towards the serum, not treated with the study molecules, and included in every chemotaxis experiment. The data refer to the readings of 5 microscopic fields/well in 4 independent chemotaxis wells per sample.

[8] = read-out: IC50 (μM), cytotoxicity on BMEC

| melting point | IC50 [2] | IC50 [3] | Structure (SMILES) | IC50 [1] | IC50 [4] | IC0 (μM) (maximum non-cytotoxic concentration) [6] | % inhibition of migration at IC0/D.S. [7] | IC50 [5, 8] | further results |
| --- | --- | --- | --- | --- | --- | --- | --- | --- | --- |
| 204 to 206 °C (dec.) | 21.7 µM | 21.1 µM | CC1(C)OCC(C2c3c([nH]c4ccccc34)C(c3c[nH]c4ccccc34)C3OC(C)(C)OC32)O1 (racemic) [ST1372, 1-(indol-3-yl)-2,3-O-isopropylidene-4-(2,3-O-isopropylidene-ethyl)-tetrahydrocarbazole] | 21.7 µM | 21.1 µM |  |  |  | increase of the activity of Doxorubicin (MDR ratio) (MCF-7/Dx line): 3,5 times; increases and blocks in G0/G1 (% of the cell) (MCF-7 cells; MCF-7, 20 μM, relative to control): 23%; increases and blocks in G0/G1 (% of the cell) (MCF-7 cells; MCF-7, 40 μM, relative to control): 32%; G0/G1 (%) (MCF-7 cells; MCF-7, compound at 20 μM): 20 μM = 54.4%; G2 + M (%) (MCF-7 cells; MCF-7, compound at 20 μM): 20 μM = 11.4%; S(%) (MCF-7 cells; MCF-7, compound at 20 μM): 20 μM = 34.2%; G0/G1 (%) (MCF-7 cells; MCF-7, compound at 40 μM): 40 μM = 57.8%; G2 + M (%) (MCF-7 cells; MCF-7, compound at 40 μM): 40 μM = 5.4%; S(%) (MCF-7 cells; MCF-7, compound at 40 μM): 40 μM = 36.8%; Apoptosis 48 h (%) (MCF-7 cells; MCF-7, compound at 40 μM): 40 μM = 16%; increase of the activity of Doxorubicin (MDR ratio) (LoVo/Dx cell line): 3,5 times |
|  | 25.2 µM | 28.4 µM | c1ccc2c(C3CCCCc4c3[nH]c3ccccc43)c[nH]c2c1 (racemic) [ST1381, 1-(indol-3-yl)-indo [2,3a]-cycloheptan.] | 22.5 µM | 28.5 µM | 30 µM | −61.7% |  | increases and blocked in G0/G1 (% of the cell line) (MCF-7 cells; MCF-7, 30 μM, relative to control): 32%; G0/G1 (%) (MCF-7 cells; MCF-7, compound at 30 μM): 30 μM = 57.7%; G2 + M (%) (MCF-7 cells; MCF-7, compound at 30 μM): 30 μM = 10.1%; S(%) (MCF-7 cells; MCF-7, compound at 30 μM): 30 μM = 32.2%; Apoptosis 48 h (%) (MCF-7 cells; MCF-7, compound at 30 μM): 30 μM = 3.3%; IC50 ([5]; endothelial cell, read-out: cytotoxicity vs endotelial cell (IC)): > 100 µM; IC50 [6]: > 100 µM; chemotaxis of endothelial cells (in words) [7]: active for the chemotaxys; chemotaxis of endothelial cells (in words) ([7]; listed as ST 1381): the better anti-chemiotactic compound |
| 220 °C (dec.) |  |  | OCCCCC(c1cc2cc3c(cc2[nH]1)OCO3)c1c[nH]c2cc3c(cc12)OCO3 (racemic) [ST1423, (R,S)-5-hydroxy-1,1-di-(5′,6′-methylendioxy-indol-2-yl,5 ″,6″-methylendioxy-indol-3-yl)-pentane] |  |  |  |  |  |  |
|  | 23.8 µM | 68.3 µM | c1ccc2c(C3CCCCc4[nH]c5ccccc5c43)c[nH]c2c1 (racemic) [ST1621, 5-(indol-3-yl)-indo [2,3a]-cycloheptan.] | 34.8 µM | 22.5 µM | 0.1 µM | −43 +/− 4% | 10 µM |  |
| 207 °C |  |  | c1ccc2c(C3CCCc4c3[nH]c3ccccc43)c[nH]c2c1 (racemic) [ST1728, 1-(1H-indol-3-yl)-tetrahydro-1H-carbazole] | 22.8 µM | 22 µM |  |  |  |  |
| 182 °C |  |  | c1ccc2c(C3CCCc4[nH]c5ccccc5c43)c[nH]c2c1 (racemic) [ST1729, 4-(1H-indol-3-yl)-tetrahydro-1H-carbazole] | 50.5 µM | 35 µM | 25 µM | −40 +/− 3% | 80 µM |  |
| 184 °C (dec.) |  |  | c1[nH]c2cc3c(cc2c1C1CCCCc2c1[nH]c1cc4c(cc21)OCO4)OCO3 (racemic) [ST1749, 1-(5″, 6″-methylendioxy-indol-3-yl)-5′,6′-methyleridioxy-indo [2,3-a]-cycloeptane] |  |  | 100 µM | −40 +/− 3% | > 200 µM |  |
| 200 °C (dec.) |  | 58.6 µM | c1[nH]c2cc3c(cc2c1C1CCCc2c1[nH]c1cc4c(cc21)OCO4)OCO3 (racemic) [ST1751, 1-(5′,6′-methylendioxy-1H-indol-3-yl)-6,7-methylendioxy-tetrahydro-1H-carbazole] |  |  |  |  |  |  |
| 286 °C (dec.) | 17 µM | 24.8 µM | c1ccc(COc2ccc3[nH]cc(C4CCCCc5c4[nH]c4ccc(OCc6ccccc6)cc54)c3c2)cc1 (racemic) [ST1765, 1-(5″-benzyloxy-indol-3-yl)-5′-benzyloxy-indo[2,3a]-cycloheptan.] | 10.5 µM | 11.5 µM |  |  |  |  |
|  |  |  | c1[nH]c2cc3c(cc2c1C1CCCc2[nH]c4cc5c(cc4c21)OCO5)OCO3 (racemic) [ST1777, 4-(5′,6′-methylendioxy-1H-indol-3-yl)-6,7-methylendioxy-tetrahydro-1H-carbazole] | 0.64 µM | 0.96 µM |  |  |  |  |
|  | 65.1 µM | 71 µM | c1ccc(COc2ccc3[nH]cc(C4CCCCc5[nH]c6ccc(OCc7ccccc7)cc6c54)c3c2)cc1 (racemic) [ST1778, 5-(5″-benzyloxy-indol-3-yl)-5′-benzyloxy-indo[2,3a]-cycloheptan.] | 54.5 µM | 28.5 µM | 25 µM | −40 +/− 4% | 50 µM |  |
|  |  | 39 µM | Oc1ccc2[nH]cc(C3CCCCc4c3[nH]c3ccc(O)cc43)c2c1 (racemic) [ST1783, 1-(5″-hydroxy-1H-indol-3-yl)-5′-hydroxy-indo[2,3a]-cycloheptan.] | 29 µM | 27 µM | 10 µM | −46% | 60 µM |  |
| 200 °C (dec.) |  |  | OCCCCC(c1c[nH]c2cc3c(cc12)OCO3)c1c[nH]c2cc3c(cc12)OCO3 [ST1422, 5-hydroxy-1,1-di-(5,6-methylendioxy-indol-3-yl)-pentane] |  |  |  |  |  |  |
| 240 °C (dec.) |  |  | OCCCC(c1c[nH]c2cc3c(cc12)OCO3)c1c[nH]c2cc3c(cc12)OCO3 [ST1730, 4-hydroxy-1,1-di-(5′,6′-methylendioxy-indol-3-yl)-butane] |  |  |  |  |  |  |
